Data reported in ChEMBL document CHEMBL2380247, “Synthesis and biological evaluation of novel aliphatic amido-quaternary ammonium salts for anticancer chemotherapy: part II” (2013).

Legend:
Type in all cases: functional
[1] = system: NUGC-3; assay: Antiproliferative activity against human NUGC3 cells at 0.3 uM by SRB assay
[2] = system: NUGC-3; assay: Antiproliferative activity against human NUGC3 cells at 0.1 uM by SRB assay
[3] = system: NUGC-3; assay: Antiproliferative activity against human NUGC3 cells at 1 uM by SRB assay
[4] = system: NUGC-3; assay: Antiproliferative activity against human NUGC3 cells at 10 uM by SRB assay
[5] = system: NUGC-3; assay: Antiproliferative activity against human NUGC3 cells at 3 uM by SRB assay
[6] = system: MDA-MB-231; assay: Antiproliferative activity against human MDA-MB-231 cells at 0.1 uM by SRB assay
[7] = system: MDA-MB-231; assay: Antiproliferative activity against human MDA-MB-231 cells at 0.3 uM by SRB assay
[8] = system: MDA-MB-231; assay: Antiproliferative activity against human MDA-MB-231 cells at 1 uM by SRB assay
[9] = system: MDA-MB-231; assay: Antiproliferative activity against human MDA-MB-231 cells at 10 uM by SRB assay
[10] = system: MDA-MB-231; assay: Antiproliferative activity against human MDA-MB-231 cells at 3 uM by SRB assay
[11] = system: ACHN; assay: Antiproliferative activity against human ACHN cells at 0.1 uM by SRB assay
[12] = system: ACHN; assay: Antiproliferative activity against human ACHN cells at 1 uM by SRB assay
[13] = system: ACHN; assay: Antiproliferative activity against human ACHN cells at 0.3 uM by SRB assay
[14] = system: ACHN; assay: Antiproliferative activity against human ACHN cells at 3 uM by SRB assay
[15] = system: ACHN; assay: Antiproliferative activity against human ACHN cells at 10 uM by SRB assay
[16] = system: NCI-H23; assay: Antiproliferative activity against human NCI-H23 cells at 0.3 uM by SRB assay
[17] = system: NCI-H23; assay: Antiproliferative activity against human NCI-H23 cells at 0.1 uM by SRB assay
[18] = system: NCI-H23; assay: Antiproliferative activity against human NCI-H23 cells at 3 uM by SRB assay
[19] = system: NCI-H23; assay: Antiproliferative activity against human NCI-H23 cells at 1 uM by SRB assay
[20] = system: NCI-H23; assay: Antiproliferative activity against human NCI-H23 cells at 10 uM by SRB assay
[21] = system: PC-3; assay: Antiproliferative activity against human PC3 cells at 0.1 uM by SRB assay
[22] = system: PC-3; assay: Antiproliferative activity against human PC3 cells at 1 uM by SRB assay
[23] = system: PC-3; assay: Antiproliferative activity against human PC3 cells at 0.3 uM by SRB assay
[24] = system: PC-3; assay: Antiproliferative activity against human PC3 cells at 3 uM by SRB assay
[25] = system: HCT-15; assay: Antiproliferative activity against human HCT15 cells at 0.1 uM by SRB assay
[26] = system: PC-3; assay: Antiproliferative activity against human PC3 cells at 10 uM by SRB assay
[27] = system: HCT-15; assay: Antiproliferative activity against human HCT15 cells at 0.3 uM by SRB assay
[28] = system: HCT-15; assay: Antiproliferative activity against human HCT15 cells at 3 uM by SRB assay
[29] = system: HCT-15; assay: Antiproliferative activity against human HCT15 cells at 1 uM by SRB assay
[30] = system: HCT-15; assay: Antiproliferative activity against human HCT15 cells at 10 uM by SRB assay
[31] = system: NCI-H23; assay: Antiproliferative activity against human NCI-H23 cells by SRB assay
[32] = system: NUGC-3; assay: Antiproliferative activity against human NUGC3 cells by SRB assay
[33] = system: HCT-15; assay: Antiproliferative activity against human HCT15 cells by SRB assay
[34] = system: ACHN; assay: Antiproliferative activity against human ACHN cells by SRB assay
[35] = system: MDA-MB-231; assay: Antiproliferative activity against human MDA-MB-231 cells by SRB assay
[36] = system: PC-3; assay: Antiproliferative activity against human PC3 cells by SRB assay

Compound | growth, % of control at 0.3 µM [1] | growth, % of control at 0.1 µM [2] | growth, % of control at 1 µM [3] | growth, % of control at 10 µM [4] | growth, % of control at 3 µM [5] | growth, % of control at 0.1 µM [6] | growth, % of control at 0.3 µM [7] | growth, % of control at 1 µM [8] | growth, % of control at 10 µM [9] | growth, % of control at 3 µM [10] | growth, % of control at 0.1 µM [11] | growth, % of control at 1 µM [12] | growth, % of control at 0.3 µM [13] | growth, % of control at 3 µM [14] | growth, % of control at 10 µM [15] | growth, % of control at 0.3 µM [16] | growth, % of control at 0.1 µM [17] | GI50 [32] | GI50 [33] | GI50 [36] | further results
C=CC[N+](C)(C)CC(C)(C)CNC(=O)CCCCCCCCCCCCCCCCC | 89.9% | 92.3% | 65.2% | -5.72% | 28.5% | 94.3% | 88.8% | 80.8% | 25% | 48.3% | 93.2% | 85.1% | 93.5% | 60.4% | 3.8% | 93.7% | 92.8% | 770 nM | > 10000 nM | 470 nM | growth, % of control at 3 µM [18]: 29.4%; growth, % of control at 1 µM [19]: 75.3%; growth, % of control at 10 µM [20]: -40%; growth, % of control at 0.1 µM [21]: 94.9%; growth, % of control at 1 µM [22]: 33.7%; growth, % of control at 0.3 µM [23]: 91%; growth, % of control at 3 µM [24]: -27.7%; growth, % of control at 0.1 µM [25]: 102%; growth, % of control at 10 µM [26]: -45.4%; growth, % of control at 0.3 µM [27]: 99.8%; growth, % of control at 3 µM [28]: 85.5%; growth, % of control at 1 µM [29]: 99%; growth, % of control at 10 µM [30]: 61.7%; GI50 [31]: 900 nM; GI50 [34]: 1750 nM; GI50 [35]: 1640 nM
CCCCCCCCCCCCCCCCCC(=O)NCC(C)(C)C[N+](C)(C)Cc1ccccc1 | 101% | 96.5% | 82% | -11% | 40.4% | 95.5% | 91.4% | 86% | 20.6% | 58.9% | 101% | 87.4% | 94% | 74.1% | 0.64% | 80.7% | 93.4% | 1320 nM | > 10000 nM | 510 nM | growth, % of control at 3 µM [18]: 34.9%; growth, % of control at 1 µM [19]: 70.6%; growth, % of control at 10 µM [20]: -25.8%; growth, % of control at 0.1 µM [21]: 101%; growth, % of control at 1 µM [22]: 38.5%; growth, % of control at 0.3 µM [23]: 95.6%; growth, % of control at 3 µM [24]: -5.4%; growth, % of control at 0.1 µM [25]: 111%; growth, % of control at 10 µM [26]: -38.9%; growth, % of control at 0.3 µM [27]: 102%; growth, % of control at 3 µM [28]: 100%; growth, % of control at 1 µM [29]: 101%; growth, % of control at 10 µM [30]: 85.2%; GI50 [31]: 910 nM; GI50 [34]: 2230 nM; GI50 [35]: 2150 nM
CCCCCCCCCCCCCC(=O)N(C)CCC[N+](C)(C)Cc1ccccc1 | 90% | 84.5% | 43.8% | -11.6% | 8.51% | 105% | 106% | 97.2% | -2.09% | 44.2% | 107% | 99.3% | 109% | 72.3% | 1.92% | 80% | 81% | 430 nM | 2830 nM | 530 nM | growth, % of control at 3 µM [18]: 14.7%; growth, % of control at 1 µM [19]: 70.4%; growth, % of control at 10 µM [20]: -11.5%; growth, % of control at 0.1 µM [21]: 101%; growth, % of control at 1 µM [22]: 56.5%; growth, % of control at 0.3 µM [23]: 87.4%; growth, % of control at 3 µM [24]: 4.38%; growth, % of control at 0.1 µM [25]: 89.9%; growth, % of control at 10 µM [26]: -13.1%; growth, % of control at 0.3 µM [27]: 86.7%; growth, % of control at 3 µM [28]: 78.5%; growth, % of control at 1 µM [29]: 93.6%; growth, % of control at 10 µM [30]: 25.1%; GI50 [31]: 660 nM; GI50 [34]: 1890 nM; GI50 [35]: 1410 nM
C=CC[N+](C)(C)CCCN(C)C(=O)CCCCCCCCCCCCCCC | 92.8% | 105% | 28.1% | -30.4% | -13.9% | 86.5% | 88.3% | 66% | 11.6% | 33.8% | 81% | 53.3% | 77.3% | 30% | -6.41% | 94.7% | 93.2% | 360 nM | > 10000 nM | 430 nM | growth, % of control at 3 µM [18]: 23.9%; growth, % of control at 1 µM [19]: 65.5%; growth, % of control at 10 µM [20]: -13.6%; growth, % of control at 0.1 µM [21]: 98.5%; growth, % of control at 1 µM [22]: 41.9%; growth, % of control at 0.3 µM [23]: 98%; growth, % of control at 3 µM [24]: 7.93%; growth, % of control at 0.1 µM [25]: 97.4%; growth, % of control at 10 µM [26]: -11.9%; growth, % of control at 0.3 µM [27]: 103%; growth, % of control at 3 µM [28]: 81.2%; growth, % of control at 1 µM [29]: 103%; growth, % of control at 10 µM [30]: 58%; GI50 [31]: 680 nM; GI50 [34]: 470 nM; GI50 [35]: 800 nM
CCCCCCCCCCCCCCCCCCOP(=O)([O-])OC1CC[N+](C)(C)CC1 [PERIFOSINE] |  |  |  |  |  |  |  |  |  |  |  |  |  |  |  |  |  | 540 nM |  | 440 nM | 
C=CC[N+](C)(C)CCCN(C)C(=O)CCCCCCCCCCCCC | 82.8% | 80.1% | 32.1% | -1.98% | 4.58% | 99.8% | 98.9% | 86.8% | 15.5% | 48.3% | 104% | 96% | 96.8% | 67% | 14.3% | 85.7% | 88.5% | 280 nM | > 10000 nM | 310 nM | growth, % of control at 3 µM [18]: 12.2%; growth, % of control at 1 µM [19]: 55.6%; growth, % of control at 10 µM [20]: -7.17%; growth, % of control at 0.1 µM [21]: 93.3%; growth, % of control at 1 µM [22]: 35.4%; growth, % of control at 0.3 µM [23]: 82.3%; growth, % of control at 3 µM [24]: -10.8%; growth, % of control at 0.1 µM [25]: 90.4%; growth, % of control at 10 µM [26]: -20.4%; growth, % of control at 0.3 µM [27]: 82.4%; growth, % of control at 3 µM [28]: 79.4%; growth, % of control at 1 µM [29]: 92.8%; growth, % of control at 10 µM [30]: 53.2%; GI50 [31]: 460 nM; GI50 [34]: 1890 nM; GI50 [35]: 1350 nM
CCCCCCCCCCCCCC(=O)N(C)CC[N+](CC)(CC)CC | 56.2% | 96.3% | 3% | -7.5% | -4.9% | 92.9% | 86.6% | 33.2% | -8% | 11.3% | 103% | 24.1% | 63.2% | 9.4% | -15.5% | 76.2% | 83.6% | 160 nM | 4330 nM | 260 nM | growth, % of control at 3 µM [18]: 3.7%; growth, % of control at 1 µM [19]: 29%; growth, % of control at 10 µM [20]: -7.7%; growth, % of control at 0.1 µM [21]: 95.7%; growth, % of control at 1 µM [22]: 11.7%; growth, % of control at 0.3 µM [23]: 84.7%; growth, % of control at 3 µM [24]: -7.5%; growth, % of control at 0.1 µM [25]: 90.7%; growth, % of control at 10 µM [26]: -22.4%; growth, % of control at 3 µM [28]: 79.2%; growth, % of control at 1 µM [29]: 88%; growth, % of control at 10 µM [30]: 43.1%; GI50 [31]: 280 nM; GI50 [34]: 230 nM; GI50 [35]: 360 nM
CCCCCCCCCCCCCCCC(=O)N1CC[N+](C)(C)CC1 |  |  |  |  |  |  |  |  |  |  |  |  |  |  |  |  |  | 290 nM | 580 nM | 480 nM | 
